Results from article PMC7665585, “Antidepressive effect of an inward rectifier K^+ channel blocker peptide, tertiapin-RQ” (PLoS ONE, 2020).
Bridge positions count the residues as written; N and C are the ends. Ends that are not written are not given here. Peptide text beside a SMILES is read from it.

target: T1, rat ROMK (Rattus norvegicus, UniProt P35560); test: Whole-cell patch-clamp of ROMK currents in 208–4 cells; type: cell-based; conditions: blockade at 1 μM estimated from fitted Hill curve (four parameters), whole-cell conductance, n = 3–6
T1 construct: expressed in transfected cells; host or cells: 293T cell line 208-4 (lentiviral transduction, GFP coexpressed)
T1 sequence (P35560 1-391): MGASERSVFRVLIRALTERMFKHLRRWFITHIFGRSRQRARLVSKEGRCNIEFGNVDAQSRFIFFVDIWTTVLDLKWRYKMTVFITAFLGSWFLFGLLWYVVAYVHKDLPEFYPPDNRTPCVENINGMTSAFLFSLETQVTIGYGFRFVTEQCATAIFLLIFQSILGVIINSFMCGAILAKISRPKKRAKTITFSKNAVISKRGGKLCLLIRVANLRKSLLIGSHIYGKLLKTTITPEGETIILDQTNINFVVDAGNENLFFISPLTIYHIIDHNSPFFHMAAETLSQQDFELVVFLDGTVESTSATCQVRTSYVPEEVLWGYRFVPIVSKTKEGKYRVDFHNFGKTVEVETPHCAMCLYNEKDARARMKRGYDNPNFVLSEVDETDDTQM
Description: The cDNAs for rat ROMK and mouse GIRK1, 2, and 4 were generously donated by Drs Mikio Hayashi (Kansai Medical University) and David Weaver (Vanderbilt University). The ROMK channels were stably expressed by a cell line, 208–4, which was transduced with lentiviral vectors coexpressing the channel and green fluorescent protein (GFP) as described previously. The GIRK genes, cloned in a pCMV6 plasmid (Origene Technologies Inc, Rockville, MD), were transiently expressed in 293T cells with calcium phosphate transfection. GIRK channel currents were recorded 24 h after transfection.
Cells grown on small cover glasses (3 × 18 mm) were placed in a recording chamber. Whole-cell currents were recorded in Tyrode solution using an Axopatch 200B amplifier (Axon Instruments, Foster City, CA) at 25°C. Tyrode solution contained (in mM): NaCl 140, KCl 5.4, NaH2PO4 0.33, CaCl2 2, MgCl2 1, HEPES 5, and glucose 5.5 (pH 7.4 adjusted with NaOH). High K^+ Tyrode solution (KCL 50 mM, NaCl 95 mM, and others were the same as standard Tyrode solution) was used for the recording of GIRK channels. Patch pipettes pulled from borosilicate glass (Narishige, Tokyo, Japan) were filled with an internal solution containing (in mM): K-aspartate 66, KCl 71.5, KH2PO4 1, EGTA 5, HEPES 5, and MgATP 3 (pH 7.4 adjusted with KOH). Recordings were digitized at 10 kHz, and low-pass filtered at 2 kHz. ROMK, Kir2.1, and GIRK currents were evoked with step pulses of 400 msec from -150 mV to 10 mV in 10 mV increments from a holding potential of -70 mV. Whole-cell currents were recorded 60 sec after the peptide application and those from 100 to 300 msec of the step pulses were averaged. Liquid junction potential or capacitive transient was not corrected or compensated. Whole-cell conductance was calculated as the slope of the current-voltage (I-V) relationship from -140 mV to -100 mV and normalized to the initial value (0 μM TPN), in which BaCl2-resistant current was subtracted and indicted as a percentage.

| Compound | Activity (ROMK channel blocking activity, percentage of blockade at 1 μM) |
| --- | --- |
| TPN 11–18 [Peptide 14] | - (-, <20%) |

same assay, conditions: blockade at 1 μM estimated from fitted Hill curve (four parameters), whole-cell conductance, n = 3–6, read-out: Activity (ROMK channel blocking activity, percentage of blockade at 1 μM)

| Compound | inhibition at 1 µM |
| --- | --- |
| CC[C@H](C)[C@@H]1NC(=O)[C@H](CCCNC(=N)N)NC(=O)[C@H](CCCNC(=N)N)NC(=O)[C@H](CC(N)=O)NC(=O)[C@H](CO)NC(=O)[C@H](CC(N)=O)NC(=O)[C@@H](N)CSSC[C@@H](C(=O)N[C@@H](Cc2c[nH]c3ccccc23)C(=O)N[C@@H](CCCCN)C(N)=O)NC(=O)[C@H](CCC(N)=O)NC(=O)[C@H](CCCCN)NC(=O)[C@@H]2CCCN2C(=O)[C@H]([C@@H](C)CC)NC1=O [Peptide 42, TPN-RQ 3-16(C5S/H12K)] (H-CNSNRRIIPKQCWK-NH2; disulfide 1-12) | < 20% |
| CC[C@H](C)[C@@H]1NC(=O)[C@H](CCCNC(=N)N)NC(=O)[C@H](CCCNC(=N)N)NC(=O)[C@H](CC(N)=O)NC(=O)[C@@H]2CSSC[C@@H](C(=O)NCC(=O)N[C@@H](CCCCN)C(=O)N[C@@H](CCCCN)C(N)=O)NC(=O)[C@H](CCCCN)NC(=O)[C@H](CCCCN)NC(=O)[C@H](Cc3c[nH]c4ccccc34)NC(=O)[C@H](CSSC[C@H](NC(=O)[C@H](CC(C)C)NC(=O)[C@H](C)N)C(=O)N[C@@H](C)C(=O)N2)NC(=O)[C@H](CCC(N)=O)NC(=O)[C@H](Cc2c[nH]cn2)NC(=O)[C@@H]2CCCN2C(=O)[C@H]([C@@H](C)CC)NC1=O [Peptide 56, TPN-RQ(N4A)] (H-ALCACNRRIIPHQCWKKCGKK-NH2; disulfide 3-14, 5-18) | 60 to 80% |
| CC[C@H](C)[C@@H]1NC(=O)[C@H](CCCNC(=N)N)NC(=O)[C@H](CCCNC(=N)N)NC(=O)[C@H](CC(N)=O)NC(=O)[C@@H]2CSSC[C@@H](C(=O)N[C@@H](C)C(=O)N[C@@H](CCCCN)C(=O)N[C@@H](CCCCN)C(N)=O)NC(=O)[C@H](CCCCN)NC(=O)[C@H](CCCCN)NC(=O)[C@H](Cc3c[nH]c4ccccc34)NC(=O)[C@H](CSSC[C@H](NC(=O)[C@H](CC(C)C)NC(=O)[C@H](C)N)C(=O)N[C@@H](CC(N)=O)C(=O)N2)NC(=O)[C@H](CCC(N)=O)NC(=O)[C@H](Cc2c[nH]cn2)NC(=O)[C@@H]2CCCN2C(=O)[C@H]([C@@H](C)CC)NC1=O [Peptide 67, TPN-RQ(G19A)] (H-ALCNCNRRIIPHQCWKKCAKK-NH2; disulfide 3-14, 5-18) | 60 to 80% |
| RRIIAHQK-NH2 [Peptide 27, TPN-RQ 7-13(P11A) + K] | < 20% |
| CC[C@H](C)[C@@H]1NC(=O)[C@H](CCCNC(=N)N)NC(=O)[C@H](CCCNC(=N)N)NC(=O)[C@H](CC(N)=O)NC(=O)[C@@H](NC(=O)[C@H](CC(N)=O)NC(=O)[C@H](CO)NC(=O)[C@H](CC(C)C)NC(=O)[C@H](C)N)CSSC[C@@H](C(=O)NCC(=O)N[C@@H](CCCCN)C(=O)N[C@@H](CCCCN)C(N)=O)NC(=O)[C@H](CCCCN)NC(=O)[C@H](CCCCN)NC(=O)[C@H](Cc2c[nH]c3ccccc23)NC(=O)[C@H](CO)NC(=O)[C@H](CCC(N)=O)NC(=O)[C@H](Cc2c[nH]cn2)NC(=O)[C@@H]2CCCN2C(=O)[C@H]([C@@H](C)CC)NC1=O [Peptide 50, TPN-RQ(C3S/C14S)] (H-ALSNCNRRIIPHQSWKKCGKK-NH2; disulfide 5-18) | < 20% |
| NCNRIIIP-NH2 [Peptide 7, TPN 4–11] | < 20% |
| CC[C@H](C)[C@@H]1NC(=O)[C@H](CCCNC(=N)N)NC(=O)[C@H](CC(N)=O)NC(=O)[C@@H]2CSSC[C@@H](C(=O)NCC(=O)N[C@@H](CCCCN)C(=O)N[C@@H](CCCCN)C(N)=O)NC(=O)[C@H](CCCCN)NC(=O)[C@H](CCCCN)NC(=O)[C@H](Cc3c[nH]c4ccccc34)NC(=O)[C@H](CSSC[C@H](NC(=O)[C@H](CC(C)C)NC(=O)[C@H](C)N)C(=O)N[C@@H](CC(N)=O)C(=O)N2)NC(=O)[C@H](CCC(N)=O)NC(=O)[C@H](Cc2c[nH]cn2)NC(=O)[C@@H]2CCCN2C(=O)[C@H]([C@@H](C)CC)NC1=O [Peptide 51, TPN-RQ(Δ8R)] (H-ALCNCNRIIPHQCWKKCGKK-NH2; disulfide 3-13, 5-17) | 40 to 60% |
| CC[C@H](C)[C@@H]1NC(=O)[C@H](CCCNC(=N)N)NC(=O)[C@H](CCCNC(=N)N)NC(=O)[C@H](CC(N)=O)NC(=O)[C@@H]2CSSC[C@@H](C(=O)NCC(=O)N[C@@H](CCCCN)C(=O)N[C@@H](CCCCN)C(N)=O)NC(=O)[C@H](CCCCN)NC(=O)[C@H](CCCCN)NC(=O)[C@H](Cc3c[nH]c4ccccc34)NC(=O)[C@H](CSSC[C@H](NC(=O)[C@H](CC(C)C)NC(=O)[C@H](C)N)C(=O)N[C@@H](CC(N)=O)C(=O)N2)NC(=O)[C@H](CCC(N)=O)NC(=O)[C@H](Cc2c[nH]cn2)NC(=O)[C@H](C)NC(=O)[C@H]([C@@H](C)CC)NC1=O [Peptide 62, TPN-RQ(P11A)] (H-ALCNCNRRIIAHQCWKKCGKK-NH2; disulfide 3-14, 5-18) | > 80% |
| RAIIPHQK-NH2 [Peptide 24, TPN-RQ 7-13(R8A) + K] | < 20% |
| CC(C)C[C@H](NC(=O)[C@H](C)N)C(=O)N[C@H]1CSSC[C@@H]2NC(=O)[C@H](CCC(N)=O)NC(=O)[C@H](Cc3c[nH]cn3)NC(=O)[C@@H]3CCCN3C(=O)[C@H](CCCNC(=N)N)NC(=O)[C@H](CCCNC(=N)N)NC(=O)[C@H](CC(N)=O)NC(=O)[C@H](CSSC[C@@H](C(=O)NCC(=O)N[C@@H](CCCCN)C(=O)N[C@@H](CCCCN)C(N)=O)NC(=O)[C@H](CCCCN)NC(=O)[C@H](CCCCN)NC(=O)[C@H](Cc3c[nH]c4ccccc34)NC2=O)NC(=O)[C@H](CC(N)=O)NC1=O [Peptide 53, TPN-RQ(ΔI9/ΔI10)] (H-ALCNCNRRPHQCWKKCGKK-NH2; disulfide 3-12, 5-16) | < 20% |
| CC[C@H](C)[C@@H]1NC(=O)[C@H](C)NC(=O)[C@H](CCCNC(=N)N)NC(=O)[C@H](CCCNC(=N)N)NC(=O)[C@H](CC(N)=O)NC(=O)[C@@H]2CSSC[C@@H](C(=O)NCC(=O)N[C@@H](CCCCN)C(=O)N[C@@H](CCCCN)C(N)=O)NC(=O)[C@H](CCCCN)NC(=O)[C@H](CCCCN)NC(=O)[C@H](Cc3c[nH]c4ccccc34)NC(=O)[C@H](CSSC[C@H](NC(=O)[C@H](CC(C)C)NC(=O)[C@H](C)N)C(=O)N[C@@H](CC(N)=O)C(=O)N2)NC(=O)[C@H](CCC(N)=O)NC(=O)[C@H](Cc2c[nH]cn2)NC(=O)[C@@H]2CCCN2C1=O [Peptide 60, TPN-RQ(I9A)] (H-ALCNCNRRAIPHQCWKKCGKK-NH2; disulfide 3-14, 5-18) | 40 to 60% |
| RRIIPHQC-NH2 [Peptide 20, TPN-RQ 7–14] | < 20% |
| CC[C@H](C)[C@@H]1NC(=O)[C@H](CCCNC(=N)N)NC(=O)[C@H](CCCNC(=N)N)NC(=O)[C@H](CC(N)=O)NC(=O)[C@@H]2CSSC[C@@H](C(=O)NCC(=O)N[C@@H](CCCCN)C(=O)N[C@@H](CCCCN)C(N)=O)NC(=O)[C@H](CCCCN)NC(=O)[C@H](CCCCN)NC(=O)[C@H](Cc3c[nH]c4ccccc34)NC(=O)[C@H](CSSC[C@H](N)C(=O)N[C@@H](CC(N)=O)C(=O)N2)NC(=O)[C@H](CCC(N)=O)NC(=O)[C@H](Cc2c[nH]cn2)NC(=O)[C@@H]2CCCN2C(=O)[C@H]([C@@H](C)CC)NC1=O [Peptide 70, TPN-RQ(Δ1A/Δ2L)] (H-CNCNRRIIPHQCWKKCGKK-NH2; disulfide 1-12, 3-16) | 60 to 80% |
| CC[C@H](C)[C@@H]1NC(=O)[C@H](CCCNC(=N)N)NC(=O)[C@H](CCCNC(=N)N)NC(=O)[C@H](CC(N)=O)NC(=O)[C@@H]2CSSC[C@@H](C(=O)NCC(=O)N[C@@H](CCCCN)C(=O)N[C@@H](CCCCN)C(N)=O)NC(=O)[C@H](CCCCN)NC(=O)[C@H](CCCCN)NC(=O)[C@H](Cc3c[nH]c4ccccc34)NC(=O)[C@H](CSSC[C@H](NC(=O)[C@H](CC(C)C)NC(=O)[C@H](C)N)C(=O)N[C@@H](CC(N)=O)C(=O)N2)NC(=O)[C@H](C)NC(=O)[C@H](Cc2c[nH]cn2)NC(=O)[C@@H]2CCCN2C(=O)[C@H]([C@@H](C)CC)NC1=O [Peptide 64, TPN-RQ(Q13A)] (H-ALCNCNRRIIPHACWKKCGKK-NH2; disulfide 3-14, 5-18) | 20 to 40% |
| RRIIPHMC-NH2 [Peptide 19, TPN-R 7–14] | < 20% |
| CNRIIIPH-NH2 [Peptide 8, TPN 5–12] | < 20% |
| RIIIPHQC-NH2 [Peptide 18, TPN-Q 7–14] | < 20% |
